Measurements reported in PMC11182288, “Effects of Netarsudil-Family Rho Kinase Inhibitors on Human Trabecular Meshwork Cell Contractility and Actin Remodeling Using a Bioengineered ECM Hydrogel” (Frontiers in Ophthalmology, 2022).
“Also recorded” adds a separate entry of the source. Where two headings read alike, the source gives them in different places.

Tests used:
[1] = system: transformed HTM cells (TM-1); assay: Cell-based assay measuring disruption of focal adhesions (paxillin staining); design: species or system human; conditions: 6 h, TM-1 cells on fibronectin-coated glass, Mean ± SEM, N ≥ 3
Procedure: Cell-based assays measuring disruption of focal adhesions were conducted using transformed HTM cells (TM-1; kind gift from Donna Peters; Department of Ophthalmology and Visual Sciences, University of Wisconsin), as previously described ([39]). […] TM-1 cells were stained with an anti-paxillin primary antibody followed by incubation with an Alexa Fluor-488 fluorescent secondary antibody and Hoechst 33342 counterstain (all from Invitrogen) to reveal focal adhesions and nuclei, respectively. Images were collected on an INCell 1000 imager (GE Healthcare, Marlborough, MA, USA), and total area of focal adhesions was measured using a custom algorithm developed using the INCell Developer Toolbox, v1.6. Dose response analyses were conducted to establish IC50 values.

[2] = target: ROCK1/2; assay: ROCK1/2 kinase assays, average of both isoforms; type: biochemical, human; conditions: average of ROCK1 and ROCK2 Ki
Procedure: (§1) Dose response analyses were conducted to establish IC50 values, which were converted to Ki values using the Cheng-Prusoff Equation Ki = IC50/(1 + ([ATP]/Km ATP).

[3] = system: normotensive Dutch Belted rabbits; design: method as in unpublished data; conditions: ref unpublished data; cited from earlier work
[4] = system: HTM cell-encapsulated ECM hydrogels; assay: HTM hydrogel contraction analysis after TGFβ2 induction and ROCKi rescue; type: cell-based, human; conditions: for Concentrations giving significantly decreased HTM hydrogel contraction compared to the TGFβ2 group / EC50 / HTM hydrogel contraction reversal compared with 10 µM Y27632: HTM07; for Concentrations giving significantly decreased HTM hydrogel contraction compared to the TGFβ2 group: dose range 0.0001-1.0 µM, 5-10 d; for EC50 / Increase of HTM hydrogel contraction over controls: TGFβ2 2.5 ng/ml 0-5 d; for EC50: then ROCKi 0.0001-1.0 µM 5-10 d, read-out: EC50, reduction of TGFβ2-induced HTM hydrogel contraction
Procedure: HTM cells (1.0 × 10^6 cells/ml) were thoroughly mixed with MA-COL (3.6 mg/ml), SH-HA (0.5 mg/ml, 0.025% (w/v) photoinitiator) and SH-ELP (2.5 mg/ml) on ice ( Supplementary Figure 2A ), followed by pipetting 10 μl droplets of the HTM cell-laden hydrogel precursor solution onto polydimethylsiloxane-coated (PDMS; Sylgard 184; Dow Corning) 24-well culture plates ( Supplementary Figure 2B ), according to our established protocols ([32]–[34]). Alternatively, 30 µl droplets of the HTM cell-laden hydrogel precursor solution were pipetted onto Surfasil-coated (Fisher Scientific) 18 × 18-mm square glass coverslips followed by placing a regular 12-mm round glass coverslip onto the hydrogels to facilitate even spreading of the polymer solution. HTM hydrogels were crosslinked by exposure to UV light (OmniCure S1500 UV Spot Curing System; Excelitas Technologies, Mississauga, Ontario, Canada) at 320-500 nm, 2.2 W/cm^2 for 5 s. The HTM hydrogel-adhered coverslips were removed with fine-tipped tweezers and placed hydrogel-side facing up in PDMS-coated 24-well culture plates ( Supplementary Figure 2C ).
Longitudinal brightfield images of HTM hydrogels subjected to the different treatments were acquired at 0 d and 10 d with an Eclipse Ti microscope (Nikon Instruments, Melville, NY, USA). Construct area was measured using Fiji software (National Institutes of Health (NIH), Bethesda, MD, USA) and normalized to 0 d followed by normalization to controls.

[5] = target: T1, ROCK2 (Homo sapiens, UniProt O75116); assay: ROCK2 protein kinase assay (Kinase-Glo Luminescent Kinase Assay); type: biochemical
T1 construct: purchased Invitrogen; Thermo Fisher Scientific
T1 sequence (O75116 whole entry): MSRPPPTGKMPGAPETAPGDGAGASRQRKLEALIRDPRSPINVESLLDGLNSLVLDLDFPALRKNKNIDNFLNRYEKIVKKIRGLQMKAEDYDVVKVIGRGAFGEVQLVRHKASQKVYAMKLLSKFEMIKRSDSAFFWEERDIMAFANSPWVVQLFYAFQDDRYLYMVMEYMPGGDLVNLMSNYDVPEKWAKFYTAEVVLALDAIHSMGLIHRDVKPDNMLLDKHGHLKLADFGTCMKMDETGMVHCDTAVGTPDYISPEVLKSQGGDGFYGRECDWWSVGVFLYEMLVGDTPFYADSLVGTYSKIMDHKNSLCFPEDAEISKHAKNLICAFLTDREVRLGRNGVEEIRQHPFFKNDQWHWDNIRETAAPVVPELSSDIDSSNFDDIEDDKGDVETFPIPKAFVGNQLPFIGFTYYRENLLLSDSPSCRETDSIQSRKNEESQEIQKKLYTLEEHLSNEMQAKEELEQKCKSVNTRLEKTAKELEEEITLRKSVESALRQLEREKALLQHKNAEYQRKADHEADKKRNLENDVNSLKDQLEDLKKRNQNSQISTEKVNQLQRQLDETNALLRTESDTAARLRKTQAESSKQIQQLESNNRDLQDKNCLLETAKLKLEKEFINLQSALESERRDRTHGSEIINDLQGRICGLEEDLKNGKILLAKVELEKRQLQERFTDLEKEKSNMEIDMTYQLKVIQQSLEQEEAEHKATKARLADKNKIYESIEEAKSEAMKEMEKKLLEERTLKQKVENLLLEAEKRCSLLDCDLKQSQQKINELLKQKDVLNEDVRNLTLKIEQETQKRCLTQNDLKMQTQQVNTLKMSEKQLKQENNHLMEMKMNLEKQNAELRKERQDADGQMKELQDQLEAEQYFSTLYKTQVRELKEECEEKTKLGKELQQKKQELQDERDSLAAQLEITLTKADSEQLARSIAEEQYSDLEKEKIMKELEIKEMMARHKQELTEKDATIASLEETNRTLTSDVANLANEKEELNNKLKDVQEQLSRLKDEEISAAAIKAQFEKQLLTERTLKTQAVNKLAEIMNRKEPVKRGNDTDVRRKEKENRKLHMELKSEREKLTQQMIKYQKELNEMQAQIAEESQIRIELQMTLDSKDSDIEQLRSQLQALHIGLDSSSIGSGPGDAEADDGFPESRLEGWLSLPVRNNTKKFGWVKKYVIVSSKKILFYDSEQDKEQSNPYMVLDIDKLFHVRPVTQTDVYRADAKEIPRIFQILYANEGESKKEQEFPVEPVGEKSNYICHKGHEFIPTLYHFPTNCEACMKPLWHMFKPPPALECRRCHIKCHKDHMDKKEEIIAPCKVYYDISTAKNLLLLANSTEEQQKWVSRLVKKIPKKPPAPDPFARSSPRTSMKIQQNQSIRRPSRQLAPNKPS
Procedure: as §1

[6] = stated in discussion, no reference given; cited from earlier work
[7] = target: T2, ROCK1 (Homo sapiens, UniProt Q13464); assay: ROCK1 protein kinase assay (Kinase-Glo Luminescent Kinase Assay); type: biochemical
T2 construct: purchased Invitrogen; Thermo Fisher Scientific
T2 sequence (Q13464 whole entry): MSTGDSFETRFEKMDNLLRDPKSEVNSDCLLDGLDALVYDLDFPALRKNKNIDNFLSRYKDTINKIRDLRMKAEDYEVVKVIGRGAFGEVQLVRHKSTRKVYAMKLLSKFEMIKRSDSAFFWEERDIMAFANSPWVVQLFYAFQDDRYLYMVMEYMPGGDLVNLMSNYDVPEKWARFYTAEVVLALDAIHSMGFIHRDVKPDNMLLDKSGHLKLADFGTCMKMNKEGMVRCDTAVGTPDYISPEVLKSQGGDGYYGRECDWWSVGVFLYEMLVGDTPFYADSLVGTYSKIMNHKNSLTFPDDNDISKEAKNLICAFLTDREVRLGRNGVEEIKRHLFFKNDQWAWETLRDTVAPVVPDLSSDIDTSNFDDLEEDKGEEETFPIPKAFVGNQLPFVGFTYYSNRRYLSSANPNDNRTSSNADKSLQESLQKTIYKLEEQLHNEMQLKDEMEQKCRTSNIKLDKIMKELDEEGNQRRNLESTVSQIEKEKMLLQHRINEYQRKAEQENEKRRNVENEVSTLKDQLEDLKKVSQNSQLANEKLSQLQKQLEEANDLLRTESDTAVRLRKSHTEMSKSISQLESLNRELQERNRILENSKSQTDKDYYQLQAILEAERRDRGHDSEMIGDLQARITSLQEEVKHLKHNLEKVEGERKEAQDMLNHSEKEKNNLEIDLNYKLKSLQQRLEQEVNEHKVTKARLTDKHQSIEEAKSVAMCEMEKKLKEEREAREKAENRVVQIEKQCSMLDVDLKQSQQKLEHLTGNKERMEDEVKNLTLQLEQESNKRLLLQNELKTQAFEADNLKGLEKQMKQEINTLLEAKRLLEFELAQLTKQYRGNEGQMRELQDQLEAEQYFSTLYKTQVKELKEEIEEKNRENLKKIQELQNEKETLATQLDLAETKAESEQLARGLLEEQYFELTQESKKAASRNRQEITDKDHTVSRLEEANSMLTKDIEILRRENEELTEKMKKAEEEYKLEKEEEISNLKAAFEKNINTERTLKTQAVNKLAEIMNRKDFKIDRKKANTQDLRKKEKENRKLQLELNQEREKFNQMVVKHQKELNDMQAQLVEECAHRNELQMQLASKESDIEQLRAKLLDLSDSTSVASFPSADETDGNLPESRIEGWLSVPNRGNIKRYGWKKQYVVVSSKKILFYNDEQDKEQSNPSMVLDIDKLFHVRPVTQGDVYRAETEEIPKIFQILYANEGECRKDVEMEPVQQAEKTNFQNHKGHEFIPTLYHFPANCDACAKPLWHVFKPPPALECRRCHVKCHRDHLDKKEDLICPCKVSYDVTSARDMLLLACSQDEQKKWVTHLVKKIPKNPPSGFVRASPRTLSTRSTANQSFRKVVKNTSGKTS
Procedure: as §1

[8] = system: F-actin stress fibers in hydrogel-encapsulated HTM cells; assay: HTM hydrogel immunocytochemistry, F-actin stress fibers; type: cell-based, human; conditions: for Effect on TGFβ2-induced F-actin stress fibers vs. TGFβ2 group: HTM05, HTM07, HTM36
Procedure: Alternatively, 30 µl droplets of the HTM cell-laden hydrogel precursor solution were pipetted onto Surfasil-coated (Fisher Scientific) 18 × 18-mm square glass coverslips followed by placing a regular 12-mm round glass coverslip onto the hydrogels to facilitate even spreading of the polymer solution. HTM hydrogels were crosslinked by exposure to UV light (OmniCure S1500 UV Spot Curing System; Excelitas Technologies, Mississauga, Ontario, Canada) at 320-500 nm, 2.2 W/cm^2 for 5 s. The HTM hydrogel-adhered coverslips were removed with fine-tipped tweezers and placed hydrogel-side facing up in PDMS-coated 24-well culture plates ( Supplementary Figure 2C ).
Nuclei were counterstained with 4′,6′-diamidino-2-phenylindole (DAPI; Abcam). Coverslips were mounted with ProLong™ Gold Antifade (Invitrogen) on Superfrost™ microscope slides (Fisher Scientific), and fluorescent images were acquired with a Zeiss LSM 780 confocal microscope (Zeiss, Germany). […] Individual z-stacks consisted of 7 slices with the z-step interval set to […]. Fluorescence signal intensity of F-actin and αSMA were determined using Z-project maximum intensity projections in Fiji (NIH) with image background subtraction.

[9] = system: cellular esterases; conditions: stated in discussion, no reference given; cited from earlier work
[10] = target: ROCK1/2; conditions: same biochemical assay; ref [13]; read-out: Ki of Y27632; cited from earlier work
[11] = system: transformed HTM cells (TM-1); conditions: same cell-based assay; ref [13]; read-out: IC50 of Y27632, HTM cell focal adhesion disruption; cited from earlier work
[12] = each compound at its respective EC50, HTM05, HTM07, HTM36
[13] = each compound at its respective EC50, across HTM05, HTM07, HTM36, 10 d
[14] = each compound at its respective EC50
[15] = each compound at its respective EC50, pooled HTM05, HTM07, HTM36, 10 d
[16] = TGFβ2 induction group, across three cell strains

Molecule	IC50 ([1]; Homo sapiens)	Ki [2]	EC50 ([4]; Homo sapiens, HTM)	Ki [5]	Ki [7]	Intraocular pressure lowering [3]	Concentrations giving significantly decreased HTM hydrogel contraction compared to the TGFβ2 group [4]	Effect on TGFβ2-induced HTM hydrogel contraction vs. TGFβ2 group [4, 12]	Relative hydrogel size vs. controls [4, 13]	Effect on TGFβ2-induced F-actin stress fibers vs. TGFβ2 group [8, 14]	Relative F-actin signal fold-change vs. controls [8, 15]	Metabolism by cellular esterases (ester hydrolysis) [9]	HTM hydrogel contraction reversal compared with 10 µM Y27632 ([4]; compound at 1.0 µM)	further results
Cc1ccc(C(=O)OCc2ccc([C@@H](CN)C(=O)Nc3ccc4cnccc4c3)cc2)c(C)c1 [Netarsudil]		~2.7 nM					≥ 0.01 µM	significantly decreased		significantly decreased			significantly more potent	IC50 [1]: 17 ± 2 nM; IC50 ([1]; listed as netarsudil): ~17 nM; Effect on TGFβ2-induced HTM hydrogel contraction, overall across HTM07 and HTM36 [4]: significantly decreased; EC50 [4]: 35.9 nM; HTM hydrogel contraction reversal compared with 10 µM Y27632 ([4]; compound at 0.1 µM): equivalent; Difference in efficacy, netarsudil 1.0 µM vs. 35.9 nM ([4]; HTM hydrogel contraction, across three cell strains): ~ 1.2 fold; Effect on F-actin signal ([8]; max level netarsudil, 1.0 µM): nearly abolishing the F-actin signal
NC[C@@H](C(=O)Nc1ccc2cnccc2c1Cl)c1ccccc1 [Compound B]		~1.9 nM	22.2 nM	2 nM	1.7 nM	did not perform as well as netarsudil	≥ 0.1 µM	significantly decreased TGFβ2-induced HTM hydrogel contraction using HTM05 and HTM36 cells	~ 105%	significantly decreased	~ 1.1 fold-change	cannot be metabolized by cellular esterases at all		
C[C@@H](N)[C@H]1CC[C@H](C(=O)Nc2ccncc2)CC1 [Compound Y27632, Y27632]														Ki [10]: ~31.5 nM; IC50 [11]: ~1740 nM
TGFβ2: transforming growth factor beta 2, used to induce a glaucoma-like cell phenotype (protein, UniProt P61812 303-414, looked up) Transforming growth factor …: ALDAAYCFRNVQDNCCLRPLYIDFKRDLGWKWIHEPKGYNANFCAGACPYLWSSDTQHSRVLSLYNTINPEASASPCCVSQDLEPLTILYYIGKTPKIEQLSNMIVKSCKCS														Increase of HTM hydrogel contraction over controls ([4]; HTM05, HTM07, HTM36): ~ 25%; Increase of HTM hydrogel contraction over controls ([4]; HTM07 and HTM36, higher passage cells): ~ 15%; Relative hydrogel size vs. controls [4, 16]: ~ 75%; Relative F-actin signal fold-change vs. controls [8, 16]: ~ 1.9 fold-change

Further lines, with some results ahead:

IC50 ([1]; Homo sapiens)	Ki [2]	EC50 ([4]; Homo sapiens, HTM)	Ki [5]	Ki [7]	Molecule	Intraocular pressure lowering [3]	Concentrations giving significantly decreased HTM hydrogel contraction compared to the TGFβ2 group [4]	Effect on TGFβ2-induced HTM hydrogel contraction vs. TGFβ2 group [4, 12]	Relative hydrogel size vs. controls [4, 13]	Effect on TGFβ2-induced F-actin stress fibers vs. TGFβ2 group [8, 14]	Relative F-actin signal fold-change vs. controls [8, 15]	Metabolism by cellular esterases (ester hydrolysis) [9]	HTM hydrogel contraction reversal compared with 10 µM Y27632 ([4]; compound at 1.0 µM)	further results
~193 nM	~3.1 nM	123 nM	1.7 ± 0.7 nM	4.5 ± 2 nM	NC[C@@H](C(=O)Nc1ccc2cnccc2c1)c1ccc(O)cc1 [Compound D]	did not perform as well as netarsudil	≥ 0.1 µM	significantly decreased	~ 96%	significantly decreased TGFβ2-induced F-actin stress fibers across all three HTM cell strains	~ 0.8 fold-change			Ionization at physiological pH [6]: partially ionized at physiological pH
~5.6 nM	~1.5 nM	6.7 nM	1.2 ± 0.4 nM	1.8 ± 0.3 nM	NC[C@@H](C(=O)Nc1ccc2cnccc2c1)c1ccc(Cl)cc1 [Compound C]	did not perform as well; also recorded: unable to significantly lower intraocular pressure	≥ 0.01 µM	failed to rescue	~ 87%	significantly different from TGFβ2	~ 1.3 fold-change	cannot be metabolized by cellular esterases at all	comparable	
~15 nM	~1.4 nM	3.7 nM		1.5 ± 0.7 nM	NC[C@@H](C(=O)Nc1ccc2cnccc2c1)c1ccc(COC(=O)c2ccccc2)cc1 [Compound A]	did not perform as well; also recorded: unable to significantly lower intraocular pressure	≥ 0.01 µM	failed to reverse		not different from TGFβ2		more quickly metabolized than netarsudil	not different	Effect on TGFβ2-induced HTM hydrogel contraction, HTM36 ([4]; uniform ROCKi concentration of 35.9 nM, HTM36): significantly decreased
